In article PMC7047128, “The Putative TCP-1 Chaperonin Is an Important Player Involved in Sialic Acid-Dependent Host Cell Invasion by Toxoplasma gondii” (Frontiers in Microbiology, 2020):

Target: T1, TgTCP-1 (putative TCP-1 chaperonin, TGME49_318410) (Toxoplasma gondii, UniProt A0A125YLR8)
T1 construct: full-length CDS, aa 1-537, N-terminal GST tag kept (pGEX-4T-1), E. coli BL21 (DE3), about 85 kDa
Experiment: pull-down on sialic acid-agarose with competition by free sialic acid, anti-GST Western blot
Format: binding
Conditions: 1 uM GST-TgTCP-1; free sialic acid 0.001-100 mg/mL; PBS wash; 4 C

T1 sequence (A0A125YLR8 entry or part of it): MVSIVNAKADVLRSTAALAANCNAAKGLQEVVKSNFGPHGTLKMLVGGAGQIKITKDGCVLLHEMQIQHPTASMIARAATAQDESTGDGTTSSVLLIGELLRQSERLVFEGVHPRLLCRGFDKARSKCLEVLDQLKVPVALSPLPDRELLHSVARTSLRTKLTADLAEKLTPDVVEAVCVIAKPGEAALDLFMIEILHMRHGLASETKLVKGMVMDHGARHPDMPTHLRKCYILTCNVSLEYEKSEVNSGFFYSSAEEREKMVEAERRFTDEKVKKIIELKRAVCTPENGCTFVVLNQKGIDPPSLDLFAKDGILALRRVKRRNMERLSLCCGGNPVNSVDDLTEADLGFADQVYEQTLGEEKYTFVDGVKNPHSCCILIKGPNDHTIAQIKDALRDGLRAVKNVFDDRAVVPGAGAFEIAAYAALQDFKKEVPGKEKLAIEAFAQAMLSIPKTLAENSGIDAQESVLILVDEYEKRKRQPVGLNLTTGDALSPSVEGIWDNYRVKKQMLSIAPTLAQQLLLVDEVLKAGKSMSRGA

Structure (SMILES): CC(=O)N[C@H]1[C@H]([C@H](O)[C@H](O)CO)OC(O)(C(=O)O)C[C@@H]1O (stereo partly shown) [sialic acid]
- pull-down on sialic acid-agarose with competition by free sialic acid, anti-GST: binding of GST-TgTCP-1 to sialic acid-agarose was inhibited by sialic acid in a dose dependent manner
